Experimental data: patent US7456152B2, “Peptide inhibitors of thrombin as potent anticoagulants” (priority 2004, dated 2008)
Where “and” joins values, the source holds several entries; their conditions need not be identical. Equal entries are not always repeated. Where two headings read alike, the source gives them in different places. Ends that are not written are not given here.

Columns and labels:
human α-thrombin [1] = molecular target: T1, human α-thrombin (Homo sapiens, UniProt P00734); assay: Clotting assay: fibrinogen clotting by human thrombin, concentration doubling the clotting time (DCT) = IC50; format: biochemical
T1 construct: Bovine and human α-thrombins were supplied by Haematologic Technologies Inc (VT, USA); cleaved off efficiently by thrombin to generate the free N-terminus of the A-chain of human thrombin; purchased Haematologic Technologies Inc (VT, USA)
Protocol: The clotting assays were carried out by use of the protocols described previously (DiMaio, J., Gibbs, B., Munn, D., Lefebvre, J., Ni, F., and Konishi, Y. (1990) J. Biol. Chem. 265, 21698-21703; and Witting, J. I., Bourdon, P., Brezniak, D. V., Maraganore, J. M., and Fenton, J. W. (1992) Biochem. J. 283 (Pt 3), 737-743) The assay employs bovine plasma fibrinogen dissolved at 0.1% in 50 mM Tris-Cl, 100 mM NaCl, 0.1% PEG-8000 at pH 7.6 (i.e. the clotting buffer). Each assay mixture contained a certain concentration of the peptide, and the reaction was started by the addition of human thrombin to a final concentration of 0.1 NIH unit/ml. Optical absorbance of the assay mixtures was measured at 420 nm and 37° C. using the Spectramax™ plate reader. The onset clotting time was determined as an intersection of the baseline and the initial slope of the O.D. change as a result of fibrin clot formation. The concentration of a peptide needed to double the clotting time (DCT) was defined as IC50. Peptide concentrations were determined by comparing the O.D.280 values of peptide stock solutions in the clotting buffer (vide supra) with the predicted extinction coefficient for each peptide (Gill, S. C. and von Hippel, P. H. (1989) Anal. Biochem. 182, 319-326).
The peptide concentration for doubling the clotting time (DCT) was defined as the IC50 value.

human α-thrombin [2] = molecular target: T1, human α-thrombin; assay: Inhibition of the amidolytic activity of thrombin (Tos-Gly-Pro-Arg-p-nitroanilide hydrolysis); format: biochemical
Protocol: Kinetics of thrombin-catalyzed hydrolysis of the chromogenic substrate Tos-Gly-Pro-Arg-p-nitroanilide were followed by absorbance at 405 nm on a Spectramax plate reader thermostated at either 25° C. or 37° C. according to the method of Maragnore et al (supra). The concentrations of Tos-Gly-Pro-Arg-p-nitroanilide ranged from 2 to 400 μM. Initial rates were calculated under conditions of <15% hydrolysis of the total substrate. The KM and Vmax values were calculated accordingly and kcat values were determined by dividing Vmax by the enzyme (thrombin) concentration. The inhibition assays were performed in the clotting buffer with a certain fixed concentration of α-thrombin (˜0.3 nM) such that linear progress curves were achieved within at least 15 min in the absence of the inhibition. The total volume of the solution was fixed at 200 μl. Reactions were initiated by addition of the chromogenic substrate to the wells containing thrombin and a certain concentration of the peptide inhibitors premixed for less than 2 min. Alternatively, the substrate was first mixed with the peptide inhibitor and the total volume was adjusted to 120 μL using the clotting buffer. Eighty microliters of human α-thrombin in the clotting buffer (˜0.3 nM final concentration) was added to initiate the reaction. The concentration of the peptides ranged from 0.5 nM to 10 μM. Kinetics data from initial rate experiments were used to construct Lineweaver-Burke plot; i.e. the relationship of (substrate concentration)^−1 versus (initial velocity)^−1 which. were analysed by linear regression with MicroCal Origin 4.1 program (MicroCal, MD) or using the GraphPad Prism software. The Ki values of the inhibitors were determined using the equation: Ki=[I]/{(SL0/SL1)−1}, where
[I] is the inhibitor concentration,
SL0 is the slope of the reaction in the absence of inhibitors, and
SL1 is the slope of the reaction in the presence of the inhibitor.
Alternatively, Dixon plots of inverse velocity versus the inhibitor concentrations were generated with the Sigmaplot™ software. Every Dixon plot contained an array of data corresponding to different substrate concentrations and the Ki values were determined from the intersections. Following Peptide Cleavage by HPLC

[3] = Amidolytic assay, 25° C. (Ki, nM), Tos-Gly-Pro-Arg-pNA, 25° C.

What does the source list for FNPRP [FN, FNPRP]?
IC50 (human α-thrombin [1]): > 100000 nM; IC50 values (in words) (human α-thrombin [1]; clotting assay, FNPRP peptide alone): submillimolar; Ki (human α-thrombin [2]; [3]): > 2000 nM

`CC[C@H](C)[C@H](NC(=O)[C@H](CCC(N)=O)NC(=O)[C@@H]1CCCN1C(=O)[C@H](CCCNC(=N)N)NC(=O)[C@@H]1CCCN1C(=O)[C@H](CC(N)=O)NC(=O)[C@@H](N)Cc1ccccc1)C(=O)N[C@@H](Cc1c[nH]cn1)C(=O)N[C@@H](CC(N)=O)C(=O)N[C@@H](CC(=O)O)C(=O)NCC(=O)N[C@@H](CC(=O)O)C(=O)N[C@@H](Cc1ccccc1)C(=O)N[C@@H](CCC(=O)O)C(=O)N[C@@H](CCC(=O)O)C(=O)N[C@H](C(=O)N1CCC[C@H]1C(=O)N[C@@H](CCC(=O)O)C(=O)N[C@@H](CCC(=O)O)C(=O)N[C@@H](Cc1ccc(O)cc1)C(=O)N[C@@H](CC(C)C)C(=O)N[C@@H](CCC(N)=O)C(=O)O)[C@@H](C)CC` [FN22-I] was tested. Which IC50 (human α-thrombin [1]) did it give?
The IC50 was 45 nM.

What about the Ki (human α-thrombin [2]; [3]) of the same compound?
The Ki was 360 nM.

Which results are given for WDPRPQRHNDGDFEPIPEEYLQ [WD22-R-P]?
IC50 (human α-thrombin [1]): ~6.7 nM and 6.7 nM; Ki (human α-thrombin [2]): 171 ± 12 nM

What does the source list for `CC[C@H](C)[C@H](NC(=O)[C@H](CCC(N)=O)NC(=O)[C@@H]1CCCN1C(=O)[C@H](CCCNC(=N)N)NC(=O)[C@@H]1CCCN1C(=O)[C@H](CCC(N)=O)NC(=O)[C@@H](NC(=O)[C@H](CO)NC(=O)CN)[C@@H](C)CC)C(=O)N[C@@H](Cc1c[nH]cn1)C(=O)N[C@@H](CC(N)=O)C(=O)N[C@@H](CC(=O)O)C(=O)NCC(=O)N[C@@H](CC(=O)O)C(=O)N[C@@H](Cc1ccccc1)C(=O)N[C@@H](CCC(=O)O)C(=O)N[C@@H](CCC(=O)O)C(=O)N[C@H](C(=O)N1CCC[C@H]1C(=O)N[C@@H](CCC(=O)O)C(=O)N[C@@H](CCC(=O)O)C(=O)N[C@@H](Cc1ccc(O)cc1)C(=O)N[C@@H](CC(C)C)C(=O)N[C@@H](CCC(N)=O)C(=O)O)[C@@H](C)CC` [GS-IQ22-I]?
IC50 (human α-thrombin [1]): 10 ± 1 nM; Ki (human α-thrombin [2]; [3]): > 400 nM; amidolytic activity of thrombin in the presence of the peptide (human α-thrombin [2]; up to 400 nM in concentration): little affected

Which IC50 (human α-thrombin [1]) does the source give for WDPRPQRHNDGDYEPIPEEYLQ [WD22-R-YP] here?
The IC50 was 4.5 ± 2 nM.

And the Ki (human α-thrombin [2])?
Its Ki is 358 ± 23 nM.

With `CC[C@H](C)[C@H](NC(=O)[C@H](CCC(=O)O)NC(=O)[C@H](CCC(=O)O)NC(=O)[C@H](Cc1ccccc1)NC(=O)[C@H](CC(=O)O)NC(=O)CNC(=O)[C@H](CC(=O)O)NC(=O)[C@H](CC(N)=O)NC(=O)[C@H](Cc1c[nH]cn1)NC(=O)[C@H](CO)NC(=O)[C@H](CCC(N)=O)NC(=O)[C@@H]1CCCN1C(=O)[C@H](CCCNC(=N)N)NC(=O)[C@@H]1CCCN1C(=O)[C@H](CC(=O)O)NC(=O)[C@@H](N)Cc1ccccc1)C(=O)N1CCC[C@H]1C(=O)N[C@@H](CCC(=O)O)C(=O)N[C@@H](CCC(=O)O)C(=O)N[C@@H](Cc1ccc(O)cc1)C(=O)N[C@@H](CC(C)C)C(=O)N[C@@H](CCC(N)=O)C(=O)O` [FD22^(a)] as the compound, how does the IC50 (human α-thrombin [1]) read?
Its IC50 is 50 ± 15 nM.

And the Ki (human α-thrombin [2]; [3])?
Its Ki is 55 ± 10 nM.

How did the IC50 (human α-thrombin [1]) turn out when `CC[C@H](C)[C@H](NC(=O)[C@H](CCC(=O)O)NC(=O)[C@H](CCC(=O)O)NC(=O)[C@H](Cc1ccccc1)NC(=O)[C@H](CC(=O)O)NC(=O)CNC(=O)[C@H](CC(=O)O)NC(=O)[C@H](CC(N)=O)NC(=O)[C@H](Cc1c[nH]cn1)NC(=O)[C@H](CCSC)NC(=O)[C@H](CCC(N)=O)NC(=O)[C@@H]1CCCN1C(=O)[C@H](CCCNC(=N)N)NC(=O)[C@@H]1CCCN1C(=O)[C@H](CCC(N)=O)NC(=O)[C@@H](N)Cc1ccccc1)C(=O)N1CCC[C@H]1C(=O)N[C@@H](CCC(=O)O)C(=O)N[C@@H](CCC(=O)O)C(=O)N[C@@H](Cc1ccc(O)cc1)C(=O)N[C@@H](CC(C)C)C(=O)N[C@@H](CCC(N)=O)C(=O)O` [FQ22-M] was run?
The IC50 was at least 10 nM.

Which IC50 (human α-thrombin [1]) does the source give for WDPRPQSRNDGDYEPIPEEYLQ [WD22-SR-YP] here?
Its IC50 is 32 ± 3 nM.

For WDPRPQSRNDGDFEPIPEEYLQ [WD22-SR-P], which IC50 (human α-thrombin [1]) is on record?
Its IC50 is 53 ± 2 nM.
